# Source: paper PMC8772704, “Quantification of Fosfomycin in Combination with Nine Antibiotics in Human Plasma and Cation-Adjusted Mueller-Hinton II Broth via LCMS” (Antibiotics, 2022)
# Assays:
# [1] = 32-day stability of stock solutions stored at −80 °C; format: physicochemical; settings: stock solution stored at -80 °C; peak area Day 32 vs Day 1
# Description: Stability of stock solutions
# All stock solutions of antibiotics and their corresponding stable-isotope variants were measured prior to cold storage at -80 °C and tested at 32 days later.
# Stability was determined by comparing the peak area of each drug between its Day 1 and Day 32 measurement. Acceptable criteria for stability was met if the […]
# [2] = Plasma concentrations in four patients on fosfomycin-based combination therapy (pilot clinical feasibility study, LCMS/MS)
# Description: For 20 µL of plasma/CAMHB sample, 20 µL of water and 20 µL of stable-isotope as internal standard (IS) were added and vortexed. 180 µL of acetonitrile was added for protein precipitation and subsequently removed by centrifugation (12,700 rpm for 10 min at 25 °C). Finally, 15 µL of the supernatant was diluted with 225 µL formic acid in water (0.1% v/v), and 10 µL was injected for LCMS/MS analysis. For the calibration curve and QCs, 20 µL of the corresponding antibiotic standard working solution was added instead of water.
# Samples were analyzed using a Nexera X2 LCMS 8060 system (Shimadzu, Kyoto, Japan). […] Electrospray ionization employing positive and negative ion mode with multiple reaction monitoring was used for analyte quantification (Table S1). Data were acquired and analyzed using Shimadzu LabSolutions (Version 5.97).
# The assay method described in this paper has been applied to a pilot clinical feasibility study to evaluate the proportion of patients with sub-optimal β-lactam levels and the need for dose adjustments in infected patients with unpredictable pharmacokinetics. We described a case series of four patients where they received in vitro guided antibiotic combination therapy using a fosfomycin-based combination regimen to treat a carbapenem-resistant Gram-negative bacteria infection. These four patients were recruited into the BLAST-2 study as the combination regimen contains a β-lactam antibiotic. In this case series, two were undergoing intermittent hemodialysis, and two patients had normal renal function. In the two patients on hemodialysis, they were on a dosing regimen of 8 g of fosfomycin on dialysis days (3 g at least 4 h before dialysis session and 5 g after completion of dialysis). The remaining two patients received 8 g of fosfomycin given every 8 h as a prolonged infusion.
# Blood samples (2–3 mL from an indwelling catheter) were collected four times over a dosing interval of the β-lactam dosing regimen and centrifuged (10 min at 3000 rpm) (Eppendorf 5425R). The resultant plasma was stored (within 15 min of collection) at −80 °C until assay.
# [3] = Autosampler stability at 4 °C of extracted antibiotic-spiked plasma/CAMHB samples; settings: for Mean accuracy (%), Table S8 / Mean accuracy (%), Table S10: CAMHB extracted samples; for Mean accuracy (%), Table S8 / Mean accuracy (%), Table S7: 7 h autosampler 4 °C; for Mean accuracy (%), Table S10 / Mean accuracy (%), Table S9: 15 h autosampler 4 °C; for Mean accuracy (%), Table S7 / Mean accuracy (%), Table S9: plasma extracted samples
# Description: (§1) The stability of fosfomycin in combination with other antibiotics in plasma/CAMHB was evaluated under various operational conditions. Spiked plasma/CAMHB samples were evaluated at 7 h and 15 h in the autosampler at 4 °C. Long-term stability was evaluated up to 4 weeks of antibiotic-spiked plasma/CAMHB samples at LQC, MQC, and HQC concentrations stored at −30 °C and −80 °C.
# [4] = Long-term storage stability of antibiotics in combination with fosfomycin spiked in plasma/CAMHB (−30 °C, −80 °C); format: physicochemical; settings: for Mean accuracy (%), Table S17 / Mean accuracy (%), Table S16 / Mean accuracy (%), Table S18 / Mean accuracy (%), Table S15: CAMHB; for Mean accuracy (%), Table S17 / Mean accuracy (%), Table S16 / Mean accuracy (%), Table S18 / Mean accuracy (%), Table S11 / Mean accuracy (%), Table S13 / Mean accuracy (%), Table S12 / Mean accuracy (%), Table S14 / Mean accuracy (%), Table S15: combination with fosfomycin; for Mean accuracy (%), Table S17 / Mean accuracy (%), Table S13: 2 weeks at -80 °C; for Mean accuracy (%), Table S16 / Mean accuracy (%), Table S12: 4 weeks at -30 °C; for Mean accuracy (%), Table S18 / Mean accuracy (%), Table S14: 4 weeks at -80 °C; for Mean accuracy (%), Table S11 / Mean accuracy (%), Table S13 / Mean accuracy (%), Table S12 / Mean accuracy (%), Table S14: plasma; for Mean accuracy (%), Table S11 / Mean accuracy (%), Table S15: 2 weeks at -30 °C
# Description: as §1
# [5] = HQC: nominal mg/L CAZ 150, FEP 200, PIP 250, ATM 300, MEM 200, DOR 175, LVX 30, CEFT 250, TZB 87.5, TGC 20, AVI 30, FOF 1000
# [6] = LQC: nominal 1 mg/L (levofloxacin, avibactam 0.5; fosfomycin 10)
# [7] = MQC: nominal mg/L CAZ 75, FEP 100, PIP 150, ATM 150, MEM 100, DOR 87.5, LVX 15, CEFT 125, TZB 43.75, TGC 10, AVI 15, FOF 500
32 Day Stability (%) [1],"Mean accuracy (%), Table S8 ([3]; HQC (nominal as E15))","Mean accuracy (%), Table S8 ([3]; LQC (nominal as E13))","Mean accuracy (%), Table S8 ([3]; MQC (nominal as E14))","Mean accuracy (%), Table S10 ([3]; HQC (nominal as E15))","Mean accuracy (%), Table S10 ([3]; LQC (nominal as E13))","Mean accuracy (%), Table S10 ([3]; MQC (nominal as E14))","Mean accuracy (%), Table S7 [3, 5]","Mean accuracy (%), Table S7 [3, 6]","Mean accuracy (%), Table S7 [3, 7]","Mean accuracy (%), Table S9 ([3]; HQC (nominal as E15))","Mean accuracy (%), Table S9 ([3]; LQC (nominal as E13))","Mean accuracy (%), Table S9 ([3]; MQC (nominal as E14))","Mean accuracy (%), Table S17 ([4]; HQC (nominal as E15))","Mean accuracy (%), Table S17 ([4]; LQC (nominal as E13))","Mean accuracy (%), Table S17 ([4]; MQC (nominal as E14))","Mean accuracy (%), Table S16 ([4]; HQC (nominal as E15))","Mean accuracy (%), Table S16 ([4]; LQC (nominal as E13))","Mean accuracy (%), Table S16 ([4]; MQC (nominal as E14))","Mean accuracy (%), Table S18 ([4]; HQC (nominal as E15))",SMILES,also measured
100.48%,107.7%,104.0%,102.6%,106.9%,107.7%,100.8%,99.6%,110.0%,95.5%,97.9%,109.1%,98.9%,99.6%,104.3%,97.3%,66.1%,60.1%,63.5%,97.4%,"C[C@@H](O)[C@H]1C(=O)N2C(C(=O)O)=C(S[C@@H]3CN[C@H](C(=O)N(C)C)C3)[C@H](C)[C@H]12 [Meropenem, meropenem]","Mean total plasma concentration (range) ([2]; Patient 004, meropenem 2 g every 8 h as a 3-h infusion): 6.7 to 23.0 mg/L; Stability verdict (within ±15% of nominal) ([4]; CAMHB samples stored at −30 °C, 4 weeks): instability; Mean accuracy (%), Table S18 ([4]; LQC (nominal as E13)): 97.9%; Mean accuracy (%), Table S18 ([4]; MQC (nominal as E14)): 95.4%; Mean accuracy (%), Table S11 ([4]; HQC (nominal as E15)): 93.3%; Mean accuracy (%), Table S11 ([4]; LQC (nominal as E13)): 86.6%; Mean accuracy (%), Table S11 ([4]; MQC (nominal as E14)): 89.7%; Mean accuracy (%), Table S13 ([4]; HQC (nominal as E15)): 105.4%; Mean accuracy (%), Table S13 ([4]; LQC (nominal as E13)): 104.2%; Mean accuracy (%), Table S13 ([4]; MQC (nominal as E14)): 95.0%; Mean accuracy (%), Table S12 ([4]; HQC (nominal as E15)): 91.8%; Mean accuracy (%), Table S12 ([4]; LQC (nominal as E13)): 106.1%; Mean accuracy (%), Table S12 ([4]; MQC (nominal as E14)): 93.8%; Mean accuracy (%), Table S14 ([4]; HQC (nominal as E15)): 96.1%; Mean accuracy (%), Table S14 ([4]; LQC (nominal as E13)): 101.8%; Mean accuracy (%), Table S14 ([4]; MQC (nominal as E14)): 95.2%"
93.04%,109.6%,109.4%,107.5%,111.6%,112.3%,107.7%,111.3%,113.6%,104.1%,107.9%,107.0%,98.1%,108.9%,103.8%,103.7%,91.0%,69.7%,84.1%,106.4%,"C[C@]1(Cn2ccnn2)[C@H](C(=O)O)N2C(=O)C[C@H]2S1(=O)=O [Tazobactam, tazobactam]","Mean total plasma concentration (range) ([2]; Patient 001, piperacillin/tazobactam 4.5 g every 6 h as a 1-h infusion): 20.9 to 58.3 mg/L; Mean accuracy (%), Table S15 ([4]; HQC (nominal as E15)): 96.9%; Mean accuracy (%), Table S15 ([4]; LQC (nominal as E13)): 93.8%; Mean accuracy (%), Table S15 ([4]; MQC (nominal as E14)): 90.4%; Mean accuracy (%), Table S18 ([4]; LQC (nominal as E13)): 105.4%; Mean accuracy (%), Table S18 ([4]; MQC (nominal as E14)): 103.3%; Mean accuracy (%), Table S11 ([4]; HQC (nominal as E15)): 106.0%; Mean accuracy (%), Table S11 ([4]; LQC (nominal as E13)): 107.9%; Mean accuracy (%), Table S11 ([4]; MQC (nominal as E14)): 104.6%; Mean accuracy (%), Table S13 ([4]; HQC (nominal as E15)): 95.4%; Mean accuracy (%), Table S13 ([4]; LQC (nominal as E13)): 108.8%; Mean accuracy (%), Table S13 ([4]; MQC (nominal as E14)): 104.7%; Mean accuracy (%), Table S12 ([4]; HQC (nominal as E15)): 96.4%; Mean accuracy (%), Table S12 ([4]; LQC (nominal as E13)): 102.0%; Mean accuracy (%), Table S12 ([4]; MQC (nominal as E14)): 98.7%; Mean accuracy (%), Table S14 ([4]; HQC (nominal as E15)): 100.5%; Mean accuracy (%), Table S14 ([4]; LQC (nominal as E13)): 100.7%; Mean accuracy (%), Table S14 ([4]; MQC (nominal as E14)): 101.3%"
